Test results from the NIST ThermoML archive (doi:10.1021/je100830b).
± gives the expanded uncertainty stated by the source.

Conditions: 298.15 K; 101.33 kPa; Liquid; Vibrating tube method
With `CO` [methanol] the mass density was 786.3 ± 0.2 kg/m3. Work on `CCO` [ethanol] yielded a mass density of 786.4 ± 0.2 kg/m3. For `C[N+](=O)[O-]` [nitromethane], the mass density was 1130.9 ± 0.4 kg/m3. For `CCCCn1cc[n+](C)c1.COS(=O)(=O)[O-]` [1-butyl-3-methylimidazolium methyl sulfate], the mass density was 1208 ± 2.8 kg/m3. Molecule `CCCO` [propan-1-ol] has a mass density of 797.6 ± 0.2 kg/m3.
